Results reported in ChEMBL document CHEMBL4680144, “N-thiadiazole-4-hydroxy-2-quinolone-3-carboxamides bearing heteroaromatic rings as novel antibacterial agents: Design, synthesis, biological evaluation and target identification” (Eur J Med Chem, 2020).
Values after ≈ are worked out from the molar mass of the structure shown.

What was measured:
[1] = system: Staphylococcus aureus; test: Antibacterial activity against wild type methicillin-sensitive Staphylococcus aureus ATCC 29213 assessed as inhibition of bacterial growth incubated for 18 to 24 hrs by broth microdilution method; assay type: functional; details: time 18-24 hrs
[2] = Inhibition of Staphylococcus aureus Gyrase B using linear pBR322 DNA as substrate incubated for 30 mins in presence of ATP by ADP-Glo assay
[3] = system: Staphylococcus aureus; test: Antibacterial activity against methicillin-resistant Staphylococcus aureus clinical isolate 15-1 assessed as inhibition of bacterial growth incubated for 18 to 24 hrs by broth microdilution method; assay type: functional; details: time 18-24 hrs
[4] = system: Staphylococcus aureus; test: Antibacterial activity against methicillin-resistant Staphylococcus aureus clinical isolate 15-2 assessed as inhibition of bacterial growth incubated for 18 to 24 hrs by broth microdilution method; assay type: functional; details: time 18-24 hrs
[5] = system: Staphylococcus aureus; test: Antibacterial activity against methicillin-resistant Staphylococcus aureus clinical isolate 15-3 assessed as inhibition of bacterial growth incubated for 18 to 24 hrs by broth microdilution method; assay type: functional; details: time 18-24 hrs
[6] = system: Staphylococcus aureus; test: Antibacterial activity against methicillin-resistant Staphylococcus aureus clinical isolate 15-6 assessed as inhibition of bacterial growth incubated for 18 to 24 hrs by broth microdilution method; assay type: functional; details: time 18-24 hrs
[7] = system: Staphylococcus aureus; test: Antibacterial activity against methicillin-resistant Staphylococcus aureus clinical isolate 15-7 assessed as inhibition of bacterial growth incubated for 18 to 24 hrs by broth microdilution method; assay type: functional; details: time 18-24 hrs
[8] = system: Staphylococcus aureus; test: Antibacterial activity against methicillin-resistant Staphylococcus aureus clinical isolate 15-8 assessed as inhibition of bacterial growth incubated for 18 to 24 hrs by broth microdilution method; assay type: functional; details: time 18-24 hrs
[9] = system: Staphylococcus aureus; test: Antibacterial activity against methicillin-resistant Staphylococcus aureus clinical isolate 15-9 assessed as inhibition of bacterial growth incubated for 18 to 24 hrs by broth microdilution method; assay type: functional; details: time 18-24 hrs
[10] = system: Staphylococcus aureus; test: Antibacterial activity against methicillin resistant and vancomycin-intermediate sensitive Staphylococcus aureus ATCC 700699 assessed as inhibition of bacterial growth incubated for 18 to 24 hrs by broth microdilution method; assay type: functional; details: time 18-24 hrs
[11] = system: Staphylococcus aureus; test: Antibacterial activity against methicillin resistant and vancomycin-intermediate sensitive Staphylococcus aureus ATCC 700788 assessed as inhibition of bacterial growth incubated for 18 to 24 hrs by broth microdilution method; assay type: functional; details: time 18-24 hrs
[12] = system: Staphylococcus epidermidis; test: Antibacterial activity against methicillin-sensitive Staphylococcus epidermidis clinical isolate 15-3 assessed as inhibition of bacterial growth incubated for 18 to 24 hrs by broth microdilution method; assay type: functional; details: time 18-24 hrs
[13] = system: Staphylococcus epidermidis; test: Antibacterial activity against methicillin-sensitive Staphylococcus epidermidis clinical isolate 15-4 assessed as inhibition of bacterial growth incubated for 18 to 24 hrs by broth microdilution method; assay type: functional; details: time 18-24 hrs
[14] = system: Staphylococcus epidermidis; test: Antibacterial activity against methicillin-resistant Staphylococcus epidermidis clinical isolate 15-1 assessed as inhibition of bacterial growth incubated for 18 to 24 hrs by broth microdilution method; assay type: functional; details: time 18-24 hrs
[15] = system: Staphylococcus epidermidis; test: Antibacterial activity against methicillin-resistant Staphylococcus epidermidis clinical isolate 15-2 assessed as inhibition of bacterial growth incubated for 18 to 24 hrs by broth microdilution method; assay type: functional; details: time 18-24 hrs
[16] = system: Staphylococcus epidermidis; test: Antibacterial activity against methicillin-resistant Staphylococcus epidermidis clinical isolate 15-3 assessed as inhibition of bacterial growth incubated for 18 to 24 hrs by broth microdilution method; assay type: functional; details: time 18-24 hrs
[17] = system: Enterococcus faecalis; test: Antibacterial activity against Enterococcus faecalis clinical isolate 15-1 assessed as inhibition of bacterial growth incubated for 18 to 24 hrs by broth microdilution method; assay type: functional; details: time 18-24 hrs
[18] = system: Enterococcus faecalis; test: Antibacterial activity against Enterococcus faecalis clinical isolate 15-2 assessed as inhibition of bacterial growth incubated for 18 to 24 hrs by broth microdilution method; assay type: functional; details: time 18-24 hrs
[19] = system: Enterococcus faecium; test: Antibacterial activity against Enterococcus faecium clinical isolate 15-1 assessed as inhibition of bacterial growth incubated for 18 to 24 hrs by broth microdilution method; assay type: functional; details: time 18-24 hrs
[20] = system: Enterococcus faecium; test: Antibacterial activity against Enterococcus faecium clinical isolate 15-2 assessed as inhibition of bacterial growth incubated for 18 to 24 hrs by broth microdilution method; assay type: functional; details: time 18-24 hrs
[21] = system: Enterococcus faecalis; test: Antibacterial activity against vancomycin-resistant Enterococcus faecalis ATCC 51299 assessed as inhibition of bacterial growth incubated for 18 to 24 hrs by broth microdilution method; assay type: functional; details: time 18-24 hrs
[22] = system: Enterococcus faecalis; test: Antibacterial activity against vancomycin-resistant Enterococcus faecalis ATCC 700802 assessed as inhibition of bacterial growth incubated for 18 to 24 hrs by broth microdilution method; assay type: functional; details: time 18-24 hrs
[23] = system: Enterococcus faecalis; test: Antibacterial activity against vancomycin-resistant Enterococcus faecalis ATCC 51575 assessed as inhibition of bacterial growth incubated for 18 to 24 hrs by broth microdilution method; assay type: functional; details: time 18-24 hrs

## CCn1c(=O)c(C(=O)Nc2nnc(-c3ccccc3F)s2)c(O)c2ccccc21
[1]
  MIC: 12.5 µg/mL (≈ 30.5 µM)
[2]
  IC50: 990 nM

## CCn1c(=O)c(C(=O)Nc2nnc(-c3ccc(OC(F)F)cc3)s2)c(O)c2ccccc21
[1]
  MIC: 12.5 µg/mL (≈ 27.3 µM)
[2]
  IC50: 1420 nM

## CCn1c(=O)c(C(=O)Nc2nnc(-c3cccc(C)c3)s2)c(O)c2ccccc21
[1]
  MIC: 12.5 µg/mL (≈ 30.8 µM)
[2]
  IC50: 1750 nM

## CCn1c(=O)c(C(=O)Nc2nnc(-c3ccncc3)s2)c(O)c2ccccc21
[1]
  MIC: 1.56 µg/mL (≈ 3.97 µM)
[2]
  IC50: 240 nM

## CCc1nnc(NC(=O)c2c(O)c3ccccc3n(CC)c2=O)s1
[1]
  MIC: 0.78 µg/mL (≈ 2.26 µM)
[3]
  MIC: 2 µg/mL (≈ 5.81 µM)
[4]
  MIC: 2 µg/mL (≈ 5.81 µM)
[5]
  MIC: 2 µg/mL (≈ 5.81 µM)
[6]
  MIC: 2 µg/mL (≈ 5.81 µM)
[7]
  MIC: 1 µg/mL (≈ 2.9 µM)
[8]
  MIC: 1 µg/mL (≈ 2.9 µM)
[9]
  MIC: 1 µg/mL (≈ 2.9 µM)
[10]
  MIC: 2 µg/mL (≈ 5.81 µM)
[11]
  MIC: 2 µg/mL (≈ 5.81 µM)
[12]
  MIC: 2 µg/mL (≈ 5.81 µM)
[13]
  MIC: 2 µg/mL (≈ 5.81 µM)
[14]
  MIC: 2 µg/mL (≈ 5.81 µM)
[15]
  MIC: 2 µg/mL (≈ 5.81 µM)
[16]
  MIC: 2 µg/mL (≈ 5.81 µM)
[17]
  MIC: 2 µg/mL (≈ 5.81 µM)
[18]
  MIC: 2 µg/mL (≈ 5.81 µM)
[19]
  MIC: 4 µg/mL (≈ 11.6 µM)
[20]
  MIC: 2 µg/mL (≈ 5.81 µM)
[21]
  MIC: 8 µg/mL (≈ 23.2 µM)
[22]
  MIC: 8 µg/mL (≈ 23.2 µM)
[23]
  MIC: 8 µg/mL (≈ 23.2 µM)
[2]
  IC50: 450 nM

## CCn1c(=O)c(C(=O)Nc2nnc(-c3ccccc3C)s2)c(O)c2ccccc21
[1]
  MIC: 50 µg/mL (≈ 123 µM)
[2]
  IC50: 3180 nM

## CCn1c(=O)c(C(=O)Nc2nnc(C)s2)c(O)c2ccccc21
[1]
  MIC: 0.78 µg/mL (≈ 2.36 µM)
[3]
  MIC: 2 µg/mL (≈ 6.05 µM)
[4]
  MIC: 4 µg/mL (≈ 12.1 µM)
[5]
  MIC: 2 µg/mL (≈ 6.05 µM)
[6]
  MIC: 2 µg/mL (≈ 6.05 µM)
[7]
  MIC: 4 µg/mL (≈ 12.1 µM)
[8]
  MIC: 2 µg/mL (≈ 6.05 µM)
[9]
  MIC: 4 µg/mL (≈ 12.1 µM)
[10]
  MIC: > 64 µg/mL
[11]
  MIC: > 64 µg/mL
[12]
  MIC: > 64 µg/mL
[13]
  MIC: > 64 µg/mL
[14]
  MIC: > 64 µg/mL
[15]
  MIC: > 64 µg/mL
[17]
  MIC: > 64 µg/mL
[18]
  MIC: > 64 µg/mL
[19]
  MIC: > 64 µg/mL
[20]
  MIC: > 64 µg/mL
[21]
  MIC: > 64 µg/mL
[22]
  MIC: > 64 µg/mL
[23]
  MIC: > 64 µg/mL
[2]
  IC50: 240 nM

## CCn1c(=O)c(C(=O)Nc2nnc(-c3cscn3)s2)c(O)c2ccccc21
[1]
  MIC: 0.78 µg/mL (≈ 1.95 µM)
[3]
  MIC: 4 µg/mL (≈ 10 µM)
[4]
  MIC: 4 µg/mL (≈ 10 µM)
[5]
  MIC: 4 µg/mL (≈ 10 µM)
[6]
  MIC: 4 µg/mL (≈ 10 µM)
[7]
  MIC: 4 µg/mL (≈ 10 µM)
[8]
  MIC: 4 µg/mL (≈ 10 µM)
[9]
  MIC: 4 µg/mL (≈ 10 µM)
[10]
  MIC: 4 µg/mL (≈ 10 µM)
[11]
  MIC: 4 µg/mL (≈ 10 µM)
[12]
  MIC: 8 µg/mL (≈ 20 µM)
[13]
  MIC: 4 µg/mL (≈ 10 µM)
[14]
  MIC: 4 µg/mL (≈ 10 µM)
[15]
  MIC: 8 µg/mL (≈ 20 µM)
[16]
  MIC: 4 µg/mL (≈ 10 µM)
[17]
  MIC: 4 µg/mL (≈ 10 µM)
[18]
  MIC: 4 µg/mL (≈ 10 µM)
[19]
  MIC: 8 µg/mL (≈ 20 µM)
[20]
  MIC: 4 µg/mL (≈ 10 µM)
[21]
  MIC: 32 µg/mL (≈ 80.1 µM)
[22]
  MIC: 32 µg/mL (≈ 80.1 µM)
[23]
  MIC: 32 µg/mL (≈ 80.1 µM)
[2]
  IC50: 160 nM

## CCn1c(=O)c(C(=O)Nc2nnc(-c3ccc(C)cc3)s2)c(O)c2ccccc21
[1]
  MIC: 6.25 µg/mL (≈ 15.4 µM)
[2]
  IC50: 640 nM

## CCCc1nnc(NC(=O)c2c(O)c3ccccc3n(CC)c2=O)s1
[1]
  MIC: 0.39 µg/mL (≈ 1.09 µM)
[3]
  MIC: 2 µg/mL (≈ 5.58 µM)
[4]
  MIC: 2 µg/mL (≈ 5.58 µM)
[5]
  MIC: 2 µg/mL (≈ 5.58 µM)
[6]
  MIC: 2 µg/mL (≈ 5.58 µM)
[7]
  MIC: 4 µg/mL (≈ 11.2 µM)
[8]
  MIC: 2 µg/mL (≈ 5.58 µM)
[9]
  MIC: 4 µg/mL (≈ 11.2 µM)
[10]
  MIC: 4 µg/mL (≈ 11.2 µM)
[11]
  MIC: 4 µg/mL (≈ 11.2 µM)
[12]
  MIC: 2 µg/mL (≈ 5.58 µM)
[13]
  MIC: 2 µg/mL (≈ 5.58 µM)
[14]
  MIC: 2 µg/mL (≈ 5.58 µM)
[15]
  MIC: 4 µg/mL (≈ 11.2 µM)
[16]
  MIC: 2 µg/mL (≈ 5.58 µM)
[17]
  MIC: 4 µg/mL (≈ 11.2 µM)
[18]
  MIC: 4 µg/mL (≈ 11.2 µM)
[19]
  MIC: 2 µg/mL (≈ 5.58 µM)
[20]
  MIC: 4 µg/mL (≈ 11.2 µM)
[21]
  MIC: 8 µg/mL (≈ 22.3 µM)
[22]
  MIC: 8 µg/mL (≈ 22.3 µM)
[23]
  MIC: 8 µg/mL (≈ 22.3 µM)
[2]
  IC50: 270 nM

## Cn1c(=O)c(C(=O)Nc2nncs2)c(O)c2ccccc21
[1]
  MIC: 6.25 µg/mL (≈ 20.7 µM)
[2]
  IC50: 190 nM

## CCn1c(=O)c(C(=O)Nc2nnc(-c3ccccc3OC)s2)c(O)c2ccccc21
[1]
  MIC: 3.12 µg/mL (≈ 7.39 µM)
[2]
  IC50: 760 nM

## CCn1c(=O)c(C(=O)Nc2nncs2)c(O)c2ccccc21
[1]
  MIC: 1.56 µg/mL (≈ 4.93 µM)
[2]
  IC50: 110 nM

## CCn1c(=O)c(C(=O)Nc2nnc(-c3cccs3)s2)c(O)c2ccccc21
[1]
  MIC: 3.12 µg/mL (≈ 7.83 µM)
[2]
  IC50: 220 nM

## CCOc1cccc(-c2nnc(NC(=O)c3c(O)c4ccccc4n(CC)c3=O)s2)c1
[1]
  MIC: 3.12 µg/mL (≈ 7.15 µM)
[2]
  IC50: 1690 nM
